In patent publication US20230151049A1, “Compounds Useful in HIV Therapy” (priority 2020, published 2023):
Like-named read-outs stand apart in the source and are kept apart here.

Assay: in vivo
Settings: for concentration at 1 day / concentration at 7 day / concentration at 14 day / concentration at 21 day / concentration at 28 day / concentration at 35 day / concentration at 42 day / concentration at 49 day / concentration at 56 day / concentration at 63 day / concentration at 70 day / concentration at 77 day / concentration at 84 day: male, Wistar Han, rat, in vivo; for concentration at 1 day: day 1
Procedure, shortened: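 Three male Wistar Han rats (200-250 g), not fasted, received a single intramuscular gastrocnemius injection of prodrug suspension at 20 mg/kg EFdA equivalent. Tail-vein blood was taken into NaF/Na2EDTA, mixed 1:1 with 100 mM ammonium acetate pH 4, frozen, and analysed by LC-MS/MS.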

**Q.** What does the source list for C#C[C@]1(COP(=O)(N[C@@H](Cc2cc(F)cc(F)c2)C(=O)OCCCCCCCCCCCCCCCC)Oc2ccccc2)O[C@@H](n2cnc3c(N)nc(F)nc32)C[C@@H]1O (single isomer, unassigned) [Example 39A]?
**A.** Mean concentration of EFdA (day 28, single IM Example 39A 58 mg/kg): BQL (BQL = below quantification limit, 0.3 ng/mL for both); Mean concentration of EFdA (day 35, single IM Example 39A 58 mg/kg): BQL (BQL = below quantification limit, 0.3 ng/mL for both); Mean concentration of EFdA (day 42, single IM Example 39A 58 mg/kg): BQL (BQL = below quantification limit, 0.3 ng/mL for both); Mean concentration of EFdA (day 49, single IM Example 39A 58 mg/kg): BQL (BQL = below quantification limit, 0.3 ng/mL for both); Mean concentration of EFdA (day 56, single IM Example 39A 58 mg/kg): BQL (BQL = below quantification limit, 0.3 ng/mL for both); Mean concentration of EFdA (day 63, single IM Example 39A 58 mg/kg): BQL (BQL = below quantification limit, 0.3 ng/mL for both); Mean concentration of EFdA (day 70, single IM Example 39A 58 mg/kg): BQL (BQL = below quantification limit, 0.3 ng/mL for both); Mean concentration of EFdA (day 77, single IM Example 39A 58 mg/kg): BQL (BQL = below quantification limit, 0.3 ng/mL for both); Mean concentration of EFdA (day 84, single IM Example 39A 58 mg/kg): BQL (BQL = below quantification limit, 0.3 ng/mL for both); concentration at 1 day (single IM Example 39A 58 mg/kg, read-out: Mean concentration of Example 39A): 17 ng/mL; concentration at 7 day (day 7, single IM Example 39A 58 mg/kg, read-out: Mean concentration of Example 39A): 13.2 ng/mL; concentration at 14 day (day 14, single IM Example 39A 58 mg/kg, read-out: Mean concentration of Example 39A): 6.43 ng/mL; concentration at 21 day (day 21, single IM Example 39A 58 mg/kg, read-out: Mean concentration of Example 39A): 8.77 ng/mL; concentration at 28 day (day 28, single IM Example 39A 58 mg/kg, read-out: Mean concentration of Example 39A): 7.98 ng/mL; concentration at 35 day (day 35, single IM Example 39A 58 mg/kg, read-out: Mean concentration of Example 39A): 3.56 ng/mL; concentration at 42 day (day 42, single IM Example 39A 58 mg/kg, read-out: Mean concentration of Example 39A): 2.61 ng/mL; concentration at 49 day (day 49, single IM Example 39A 58 mg/kg, read-out: Mean concentration of Example 39A): 2.45 ng/mL; concentration at 56 day (day 56, single IM Example 39A 58 mg/kg, read-out: Mean concentration of Example 39A): 3.42 ng/mL; concentration at 63 day (day 63, single IM Example 39A 58 mg/kg, read-out: Mean concentration of Example 39A): 2.7 ng/mL; concentration at 70 day (day 70, single IM Example 39A 58 mg/kg, read-out: Mean concentration of Example 39A): 1.68 ng/mL; concentration at 77 day (day 77, single IM Example 39A 58 mg/kg, read-out: Mean concentration of Example 39A): 1.18 ng/mL; concentration at 84 day (day 84, single IM Example 39A 58 mg/kg, read-out: Mean concentration of Example 39A): 1.39 ng/mL

**Q.** What does the source list for C#C[C@]1(COP(=O)(N[C@@H](Cc2cc(F)cc(F)c2)C(=O)OCCCCCCCCCCCCCCCCCC)Oc2ccccc2)O[C@@H](n2cnc3c(N)nc(F)nc32)C[C@@H]1O (single isomer, unassigned) [Example 40A]?
**A.** Mean concentration of EFdA (day 14, single IM Example 40A 60 mg/kg): BQL (BQL = below quantification limit, 0.3 ng/ml for both); Mean concentration of EFdA (day 21, single IM Example 40A 60 mg/kg): BQL (BQL = below quantification limit, 0.3 ng/ml for both); Mean concentration of EFdA (day 28, single IM Example 40A 60 mg/kg): BQL (BQL = below quantification limit, 0.3 ng/ml for both); Mean concentration of EFdA (day 35, single IM Example 40A 60 mg/kg): BQL (BQL = below quantification limit, 0.3 ng/ml for both); Mean concentration of EFdA (day 42, single IM Example 40A 60 mg/kg): BQL (BQL = below quantification limit, 0.3 ng/ml for both); Mean concentration of EFdA (day 49, single IM Example 40A 60 mg/kg): BQL (BQL = below quantification limit, 0.3 ng/ml for both); Mean concentration of EFdA (day 56, single IM Example 40A 60 mg/kg): BQL (BQL = below quantification limit, 0.3 ng/ml for both); Mean concentration of EFdA (day 63, single IM Example 40A 60 mg/kg): BQL (BQL = below quantification limit, 0.3 ng/ml for both); Mean concentration of EFdA (day 70, single IM Example 40A 60 mg/kg): BQL (BQL = below quantification limit, 0.3 ng/ml for both); Mean concentration of EFdA (day 77, single IM Example 40A 60 mg/kg): BQL (BQL = below quantification limit, 0.3 ng/ml for both); Mean concentration of EFdA (day 84, single IM Example 40A 60 mg/kg): BQL (BQL = below quantification limit, 0.3 ng/ml for both); concentration at 1 day (single IM Example 40A 60 mg/kg, read-out: Mean concentration of Example 40A): 59.2 ng/mL; concentration at 7 day (day 7, single IM Example 40A 60 mg/kg, read-out: Mean concentration of Example 40A): 22.4 ng/mL; concentration at 14 day (day 14, single IM Example 40A 60 mg/kg, read-out: Mean concentration of Example 40A): 11.2 ng/mL; concentration at 21 day (day 21, single IM Example 40A 60 mg/kg, read-out: Mean concentration of Example 40A): 11.2 ng/mL; concentration at 28 day (day 28, single IM Example 40A 60 mg/kg, read-out: Mean concentration of Example 40A): 12.7 ng/mL; concentration at 35 day (day 35, single IM Example 40A 60 mg/kg, read-out: Mean concentration of Example 40A): 12.6 ng/mL; concentration at 42 day (day 42, single IM Example 40A 60 mg/kg, read-out: Mean concentration of Example 40A): 13.2 ng/mL; concentration at 49 day (day 49, single IM Example 40A 60 mg/kg, read-out: Mean concentration of Example 40A): 11.7 ng/mL; concentration at 56 day (day 56, single IM Example 40A 60 mg/kg, read-out: Mean concentration of Example 40A): 14.7 ng/mL; concentration at 63 day (day 63, single IM Example 40A 60 mg/kg, read-out: Mean concentration of Example 40A): 13 ng/mL; concentration at 70 day (day 70, single IM Example 40A 60 mg/kg, read-out: Mean concentration of Example 40A): 12.2 ng/mL; concentration at 77 day (day 77, single IM Example 40A 60 mg/kg, read-out: Mean concentration of Example 40A): 11.7 ng/mL; concentration at 84 day (day 84, single IM Example 40A 60 mg/kg, read-out: Mean concentration of Example 40A): 10.3 ng/mL

**Q.** Which “Mean concentration of EFdA” value (day 7, single IM Example 42B 64 mg/kg) does the source give for C#C[C@]1(COP(=O)(N[C@@H](Cc2cc(F)cc(F)c2)C(=O)OCCCCCCCCCCCCCCCCCCCCCC)Oc2ccccc2)O[C@@H](n2cnc3c(N)nc(F)nc32)C[C@@H]1O (single isomer, unassigned) [Example 42B] here?
**A.** Its value is “BQL (BQL = below quantification limit, 0.3 ng/mL for both)”.

**Q.** What about the “Mean concentration of EFdA” value (day 14, single IM Example 42B 64 mg/kg) of the same compound?
**A.** The value was “BQL (BQL = below quantification limit, 0.3 ng/mL for both)”.

**Q.** What about the “Mean concentration of EFdA” value (day 21, single IM Example 42B 64 mg/kg) of the same compound?
**A.** The value was “BQL (BQL = below quantification limit, 0.3 ng/mL for both)”.

**Q.** And the “Mean concentration of EFdA” value (day 28, single IM Example 42B 64 mg/kg)?
**A.** Its value is “BQL (BQL = below quantification limit, 0.3 ng/mL for both)”.

**Q.** And the “Mean concentration of EFdA” value (day 35, single IM Example 42B 64 mg/kg)?
**A.** The value was “BQL (BQL = below quantification limit, 0.3 ng/mL for both)”.

**Q.** And the “Mean concentration of EFdA” value (day 42, single IM Example 42B 64 mg/kg)?
**A.** The value was “BQL (BQL = below quantification limit, 0.3 ng/mL for both)”.

**Q.** What about the “Mean concentration of EFdA” value (day 49, single IM Example 42B 64 mg/kg) of the same compound?
**A.** The value was “BQL (BQL = below quantification limit, 0.3 ng/mL for both)”.

**Q.** And the “Mean concentration of EFdA” value (day 56, single IM Example 42B 64 mg/kg)?
**A.** The value was “BQL (BQL = below quantification limit, 0.3 ng/mL for both)”.

**Q.** What about the “Mean concentration of EFdA” value (day 63, single IM Example 42B 64 mg/kg) of the same compound?
**A.** The value was “BQL (BQL = below quantification limit, 0.3 ng/mL for both)”.

**Q.** What about the “Mean concentration of EFdA” value (day 70, single IM Example 42B 64 mg/kg) of the same compound?
**A.** The value was “BQL (BQL = below quantification limit, 0.3 ng/mL for both)”.

**Q.** And the “Mean concentration of EFdA” value (day 77, single IM Example 42B 64 mg/kg)?
**A.** Its value is “BQL (BQL = below quantification limit, 0.3 ng/mL for both)”.

**Q.** What about the “Mean concentration of EFdA” value (day 84, single IM Example 42B 64 mg/kg) of the same compound?
**A.** The value was “BQL (BQL = below quantification limit, 0.3 ng/mL for both)”.
